In the SangsterLogP compilation one finds logD data, which are given here for 26 compounds.

The data set can be described thus: method code SF-AS, from DOI: 10.1021/jo00922a017. The conditions noted are these: pH 1.0.
Regarding `CS(=O)(=O)Nc1ccc(Cl)cc1`, the logD is 1.85. With `O=S(=O)(Nc1ccc(I)cc1)C(F)(F)F` the figure was 4.39; with `CC(=O)c1cccc(NS(=O)(=O)C(F)(F)F)c1`, 2.78. With `Cc1ccc(NS(=O)(=O)C(F)(F)F)cc1` the figure was 3.6; with `O=S(=O)(CF)Nc1ccc(Cl)cc1`, 2.25. With `O=C(c1ccccc1)c1ccc(NS(=O)(=O)C(F)(F)F)cc1` the figure was 4.28; with `CS(=O)(=O)c1cccc(NS(=O)(=O)C(F)(F)F)c1`, 1.85; with `O=S(=O)(Nc1ccc(F)cc1)C(F)(F)F`, 3.25. `O=S(=O)(Nc1ccc(Cl)cc1)C(F)(F)F` returned a logD of 3.96.

`COc1cccc(NS(=O)(=O)C(F)(F)F)c1` displayed a logD of 3.13. With `O=S(=O)(Nc1ccccc1)C(F)F` the figure was 1.95. Under `O=S(=O)(Nc1ccc(Cl)cc1)C(F)F` stands 2.84; under `O=S(=O)(Nc1cccc(Cl)c1)C(F)(F)F`, 4; under `O=S(=O)(CF)Nc1ccccc1`, 1.35. With `O=S(=O)(Nc1cccc(Br)c1)C(F)(F)F` the figure was 3.82; with `O=S(=O)(Nc1ccc(F)cc1F)C(F)(F)F`, 3.06; with `O=S(=O)(Nc1ccc(-c2ccccc2)cc1)C(F)(F)F`, 4.97. In turn, `O=S(=O)(Nc1cccc(F)c1)C(F)(F)F` had a log distribution coefficient (logD) of 3.42. With `O=S(=O)(Nc1ccc(C(F)(F)F)cc1)C(F)(F)F` the figure was 4.47. In turn, `CS(=O)(=O)c1ccc(NS(=O)(=O)C(F)(F)F)cc1` came in with a log distribution coefficient (logD) of 1.99. With `O=S(=O)(Nc1ccccc1)C(F)(F)F` the figure was 3.05; with `O=S(=O)(Nc1cccc(O)c1)C(F)(F)F`, 2.51. `O=S(=O)(Nc1ccc(Cl)cc1Cl)C(F)(F)F` showed a pH-dependent lipophilicity (logD) of 3.88. With `CC(=O)c1ccc(NS(=O)(=O)C(F)(F)F)cc1` the figure was 2.83; with `COc1ccc(NS(=O)(=O)C(F)(F)F)cc1`, 3. With `O=S(=O)(Nc1cccc(C(F)(F)F)c1)C(F)(F)F` the figure was 4.5.
